Test results published in patent US9096560B2, “5-heterocyclylalkyl-3-hydroxy-2-phenylcyclopent-2-enones as herbicides” (Syngenta Limited, priority 2008, dated 2015).

Experiments:
Type in all cases: in vivo
[1] = system: Winter Wheat variety 'Hereward' seed treated with cloquintocet mexyl; experiment: Example C crop damage test on Winter Wheat seed treated with safener cloquintocet mexyl, post-emergence; details: rate 250 g/ha, seed treated with cloquintocet mexyl 0.5 grams per kilogram of dry seed, evaluated after 13 days
Method: Seeds of the Winter Wheat variety ‘Hereward’ were seed treated with a wettable powder formulation of the cereal herbicide safener, cloquintocet mexyl, at a rate of 0.5 grams per kilogram of dry seed prior to the initiation of glasshouse testing. One seed was sown per 1.5 inch plastic pot into a sandy loam soil at a depth of 1 cm, 8 days prior to application of the test compounds and was watered and grown under controlled conditions in a glasshouse (at 24/16° C., day/night; 14 hours light; 65% humidity). The plants were sprayed Post-emergence with an aqueous spray solution derived from the formulation of the technical active ingredient in acetone/water (50:50) solution containing 0.5% Tween 20 (polyoxyethelyene sorbitan monolaurate, CAS RN 9005-64-5). The test plants were then grown in a glasshouse under controlled conditions in a glasshouse (at 24/16° C., day/night; 14 hours light; 65% humidity) and watered twice daily. After 13 days for pre and post-emergence, the test was evaluated (100=total damage to plant; 0=no damage to plant).

[2] = system: Alopecurus myosuroides (ALOMY); experiment: Example B post-emergence herbicidal test, ALOMY; details: Alopecurus myosuroides, 312 h, rate 250 g/ha, evaluated after 13 days, scale 0-100, read-out: Post-emergence activity ALOMY (100=total damage to plant; 0=no damage to plant)
Summary of the method: (§1)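 Foliar application to 8-day-old pot-grown seedlings in a glasshouse (24/16 °C, 14 h photoperiod, 65% humidity). Spray solution was derived from an acetone/water (50:50) formulation with 0.5% Tween 20. Injury was assessed 13 days later on a 0–100 scale.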

[3] = system: Winter Wheat variety 'Hereward'; experiment: Example C crop damage test on Winter Wheat, post-emergence, no safener; details: Triticum aestivum, 312 h, rate 250 g/ha, evaluated after 13 days, read-out: Winter Wheat (Hereward) damage (100=total damage to plant; 0=no damage to plant)
Method: Seeds of the Winter Wheat variety ‘Hereward’ were sown in standard soil in pots. After 8 days cultivation under controlled conditions in a glasshouse (at 24/16° C., day/night; 14 hours light; 65% humidity), the plants were sprayed with an aqueous spray solution derived from the formulation of the technical active ingredient in acetone/water (50:50) solution containing 0.5% Tween 20 (polyoxyethelyene sorbitan monolaurate, CAS RN 9005-64-5). The test plants were then grown in a glasshouse under controlled conditions in a glasshouse (at 24/16° C., day/night; 14 hours light; 65% humidity) and watered twice daily. After 13 days for pre and post-emergence, the test was evaluated (100=total damage to plant; 0=no damage to plant).

Avena fatua (AVEFA) [4] = experiment: Example B post-emergence herbicidal test, AVEFA; details: Avena fatua, 312 h, rate 250 g/ha, evaluated after 13 days, scale 0-100, read-out: Post-emergence activity AVEFA (100=total damage to plant; 0=no damage to plant)
Summary of the method: as §1

Avena fatua (AVEFA) [5] = experiment: Example B pre-emergence herbicidal test, AVEFA; details: Avena fatua, 312 h, rate 250 g/ha, evaluated after 13 days, 100=total damage to plant, 0=no damage to plant
Summary of the method: (§2)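 Plants were rated 13 days after treatment, 0 = no damage to 100 = total damage. They were grown in a glasshouse at 24/16 °C, 14 h light, 65% humidity and watered twice daily. Pre-emergence spray was applied one day after sowing, formulated in acetone/water 50:50 with 0.5% Tween 20.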

[6] = system: Alopecurus myosuroides (ALOMY); experiment: Example B pre-emergence herbicidal test, ALOMY; details: Alopecurus myosuroides, 312 h, rate 250 g/ha, evaluated after 13 days, 100=total damage to plant, 0=no damage to plant
Summary of the method: as §2

Lolium perenne (LOLPE) [7] = experiment: Example B pre-emergence herbicidal test, LOLPE; details: Lolium perenne, 312 h, rate 250 g/ha, evaluated after 13 days, 100=total damage to plant, 0=no damage to plant
Summary of the method: as §2

[8] = system: Echinochloa crus-galli (ECHCG); experiment: Example B post-emergence herbicidal test, ECHCG; details: Echinochloa crus-galli, 312 h, rate 250 g/ha, evaluated after 13 days, scale 0-100, read-out: Post-emergence activity ECHCG (100=total damage to plant; 0=no damage to plant)
Summary of the method: as §1

Lolium perenne (LOLPE) [9] = experiment: Example B post-emergence herbicidal test, LOLPE; details: Lolium perenne, 312 h, rate 250 g/ha, evaluated after 13 days, scale 0-100, read-out: Post-emergence activity LOLPE (100=total damage to plant; 0=no damage to plant)
Summary of the method: as §1

[10] = system: Echinochloa crus-galli (ECHCG); experiment: Example B pre-emergence herbicidal test, ECHCG; details: Echinochloa crus-galli, 312 h, rate 250 g/ha, evaluated after 13 days, 100=total damage to plant, 0=no damage to plant
Summary of the method: as §2

| SMILES | Winter Wheat (Hereward) + cloquintocet mexyl damage (100=total damage to plant; 0=no damage to plant) [1] | pest or weed control at 250 g/ha [2] [%] | crop damage to winter wheat at 250 g/ha [3] [%] | pest or weed control at 250 g/ha (Avena fatua (AVEFA) [4]) [%] | pest or weed control at 250 g/ha (Avena fatua (AVEFA) [5]) [%] | pest or weed control at 250 g/ha [6] [%] | pest or weed control at 250 g/ha (Lolium perenne (LOLPE) [7]) [%] | pest or weed control at 250 g/ha [8] [%] | pest or weed control at 250 g/ha (Lolium perenne (LOLPE) [9]) [%] | pest or weed control at 250 g/ha [10] [%] |
| --- | --- | --- | --- | --- | --- | --- | --- | --- | --- | --- |
| Cc1cc(C)c(C2C(=O)C/C(=C\C3CCOC3)C2=O)c(C)c1 (stereo not shown) [Compound T17] | 50 | 90 | 70 | 100 | 100 | 100 | 100 | 100 | 100 | 100 |
| Cc1cc(C)c(C2C(=O)C/C(=C\C3CCOC(C)(C)C3)C2=O)c(C)c1 (stereo not shown) [Compound T37] | 70 | 90 | 80 | 100 | 90 | 100 | 100 | 100 | 100 | 100 |
| Cc1cc(C)c(C2C(=O)CC(CC3CCOC(C)(C)C3)C2=O)c(C)c1 (stereo not shown) [Compound T39] | 70 | 90 | 80 | 100 | 100 | 100 | 100 | 100 | 100 | 100 |
| Cc1cc(C)c(C2C(=O)CC(CC3COCCO3)C2=O)c(C)c1 (stereo not shown) [Compound T40] | 10 | 80 | 60 | 90 | 80 | 100 | 100 | 100 | 100 | 100 |
| Cc1cc(C)c(C2C(=O)CC(CC3CCN(C(=O)c4ccccc4)C3)C2=O)c(C)c1 (stereo not shown) [Compound T41] | 80 | 100 | 90 | 100 | 90 | 70 | 90 | 100 | 100 | 100 |
| Cc1cc(-c2ccc(Cl)cc2)cc(C)c1C1C(=O)C/C(=C\C2CCOCC2)C1=O (stereo not shown) [Compound T62] | 70 | 90 | 80 | 100 | 70 | 80 | 100 | 100 | 90 | 100 |
| Cc1cc(-c2ccc(Cl)cc2)cc(C)c1C1C(=O)CC(CC2CCOCC2)C1=O (stereo not shown) [Compound T64] | 70 | 90 | 80 | 100 | 90 | 50 | 100 | 100 | 90 | 100 |
